# Substitutions are numbered along the chain they refer to.
# Key:
# [1] = target: T1, wild-type androgen receptor (AR) (Homo sapiens, UniProt P10275); assay: AR binding inhibitory test (wild type); conditions: 1 μM compound, 3 nM miboleron, 4° C. for 3 hours, dextran/charcoal B/F separation; read-out: Inhibitory rate (%) at 1 μM, Wild type
# T1 sequence (P10275 1-920): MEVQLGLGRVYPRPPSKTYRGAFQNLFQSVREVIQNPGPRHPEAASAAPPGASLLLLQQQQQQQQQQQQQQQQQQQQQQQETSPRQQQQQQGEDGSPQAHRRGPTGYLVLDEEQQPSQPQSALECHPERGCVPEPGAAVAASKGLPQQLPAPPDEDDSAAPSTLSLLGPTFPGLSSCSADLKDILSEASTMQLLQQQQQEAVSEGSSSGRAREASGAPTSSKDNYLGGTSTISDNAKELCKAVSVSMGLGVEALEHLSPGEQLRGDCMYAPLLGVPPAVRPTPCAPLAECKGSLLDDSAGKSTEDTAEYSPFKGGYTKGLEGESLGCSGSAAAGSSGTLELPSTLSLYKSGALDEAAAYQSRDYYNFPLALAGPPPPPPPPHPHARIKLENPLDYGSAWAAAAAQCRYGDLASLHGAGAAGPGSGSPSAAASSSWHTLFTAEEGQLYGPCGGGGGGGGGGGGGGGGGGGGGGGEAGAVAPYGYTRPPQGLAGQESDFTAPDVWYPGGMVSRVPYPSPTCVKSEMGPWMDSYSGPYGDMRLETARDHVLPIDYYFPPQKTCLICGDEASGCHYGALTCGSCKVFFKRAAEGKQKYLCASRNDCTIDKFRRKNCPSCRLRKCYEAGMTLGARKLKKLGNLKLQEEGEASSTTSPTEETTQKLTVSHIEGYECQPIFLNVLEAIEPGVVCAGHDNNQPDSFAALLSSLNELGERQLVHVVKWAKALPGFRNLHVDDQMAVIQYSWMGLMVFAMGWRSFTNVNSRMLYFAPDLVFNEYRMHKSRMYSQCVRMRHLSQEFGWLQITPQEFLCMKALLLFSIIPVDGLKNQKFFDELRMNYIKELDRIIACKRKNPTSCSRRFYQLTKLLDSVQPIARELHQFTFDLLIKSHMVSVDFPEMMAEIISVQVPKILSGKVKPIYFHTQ
# Experimental: 3 nM miboleron and 1 μM of a compound was added to a solution containing a wild-type androgen receptor (AR) or an androgen receptor (AR) having a LNCaP type mutation, this was incubated at 4° C. for 3 hours, and B(Bound)/F(Free) separation was performed by a dextran/charcoal method. A label count of B was measured, and an inhibition rate of the compound was calculated.
# [2] = system: human prostate cancer cell LNCaP-FGC; assay: Prostate specific antigen (PSA) production inhibition in prostate cancer cell; type: cell-based; conditions: 72 h, 1 μM compound, testosterone 1 ng/mL, three days, PSA in culture supernatant by ELISA, testosterone non-added group 100%, testosterone-added group 0%, read-out: PSA production Inhibitory rate (%) at 1 μM
# Experimental: A human prostate cancer cell LNCaP-FGC was inoculated on a 96-well plate at 5000 cells/100 μL/well and, on the next day, testosterone having the final concentration of 1 ng/mL and 1 μM of a compound were added. Three days after addition, the PSA concentration in the culture supernatant was measured by ELISA, and a PSA production inhibition rate was calculated, letting the rate of a testosterone non-added group to be 100%, and letting the rate of a testosterone-added group to be 0%.
# mutated AR (W741C) = target: T2, mutated AR (W741C) (Homo sapiens, UniProt P10275, W742C); assay: AR transcription inhibition test (luciferase reporter in Cos-7); type: cell-based; conditions: 0.1 μM compound, DHT 0.04 μM, 24 hours, luciferase activity, relative to a control
# T2 construct: expressed in transfected cells; host or cells: Cos-7
# T2 sequence (P10275 1-920 W742C): T1 sequence (P10275 1-920) with W742C
# Experimental: 5,000,000 Cells of Cos-7 was inoculated on a flask, and cultured in a culturing solution (DMEM+10% Dextran Charcoal (DCC)-Fetal Bovine Serum (FBS)+2 mM glutamine) for 24 hours, and a vector DNA in which mutated AR (W741C) had been inserted, and a vector DNA in which a luciferase gene had been connected downstream of an androgen-responsive promoter were transfected by a liposome method. After two hours, the medium was exchanged, the cells were cultured for 3 hours, DHT (dihydrotestosterone) having the final concentration of 0.04 μM and an assessment compound having the final concentration of 0.1 μM were added, and the cells were cultured for 24 hours, and luciferase activity was measured to investigate AR transcription inhibition activity of the assessment compound.
# mouse prostate = assay: Test of reduction in weight of mouse prostate; type: in vivo; conditions: orally 50 mg/kg/day for 7 days, 8 week old male mouse; drug non-addition 0%, castration 100%
# Source text: A rate of reduction in a prostate weight is shown in Table 5, letting at drug non-addition to be 0%, and letting at castration to be 100%.
compound,measurement,setting,value
"Cc1c(C#N)c(-c2ccc(C#N)cc2)c(C)n1Cc1cnc(Cl)c(CO)c1 [Compound 1, 1-{[6-Chloro-5-(hydroxymethyl)pyridin-3-yl]methyl}-4-(4-cyanophenyl)-2,5-dimethyl-1H-pyrrole-3-carbonitrile]",inhibition at 1 µM,[1],94%
same,inhibition at 1 µM,[2],99%
same,AR transcription Inhibitory rate (%) at 0.1 μM,mutated AR (W741C),49%
same,Reduction rate (%) of prostate weight,mouse prostate,74%

# From patent US20080176906A1, “Substituted Pyrrole Derivative” (Takeda Pharmaceutical Company Limited, priority 2004, published 2008)
